Measured values taken from article PMC7284870, “Antimicrobial Peptides from Rat-Tailed Maggots of the Drone Fly Eristalis tenax Show Potent Activity against Multidrug-Resistant Gram-Negative Bacteria” (Microorganisms, 2020).
≈ marks a conversion by molar mass, not a printed value. Read-outs that look alike come from different tables or passages of the source.

Legend:
Experiment in all cases: MIC, clinical isolates
Format in all cases: cell-based
[1] = system: Klebsiella pneumoniae clinical isolates (21)
Procedure: (§1) The strains that were used in this study (Table 2 and Table S1) were cultivated at 37 °C in cation-adjusted Mueller–Hinton broth (CAMB) in Erlenmeyer flasks, or on the same medium with agar in Petri dishes. Exceptionally, Mycobacterium smegmatis was cultivated at 37 °C in brain heart infusion (BHI) medium that was supplemented with 1% Tween-80 in Erlenmeyer flasks, or on the same medium lacking detergent but with agar in Petri dishes. Strains listed with Robert Koch Institute (RKI) strain numbers are clinical isolates from the RKI strain collection originating from hospitalized patients in Germany. The remaining strains originated from the Sanofi strain collection and they were originally purchased from the American Type Culture Collection or the German Collection of Microorganisms and Cell Cultures. Meropenem/colistin-resistant strains were maintained, as described above, with the appropriate antibiotic added at levels below the minimal inhibitory concentration (MIC).
(§2) The MIC values were determined in 384-well microtiter plates with an assay volume of 20 µL. Immediately before each assay, the cultures of test organisms (bacteria grown for 18 h, Candida albicans and M. smegmatis grown for 48 h) were diluted with the appropriate medium to a density of 1 × 10^6 cells/mL (C. albicans), 1 × 10^5 cells/mL (M. smegmatis) or 5 × 10^5 cells per mL (other species). […] We transferred 2-µL aliquots from this dilution series to new 384-well microtiter plates while using a CyBio-Well 384-channel automated pipettor (Analytic Jena, Jena, Germany) and added 18 µL of the diluted suspension of each test species using a Viafill reagent dispenser (Integra), thus reducing the final peptide concentration 10-fold to the range 1024–0.03125 µg/mL. […] The growth of M. smegmatis was measured using the BacTiter-Glo luminescence test system (Promega, Madison, WI, USA). The growth of the other species was determined by visual inspection of the microtiter plate and turbidimetry based on the optical density at 600 nm (OD600). The MIC was defined as the peptide concentration at which no bacterial growth was observed. We supplemented the test medium with either 150 mM NaCl or 1.25 mM CaCl2 to represent monovalent and divalent cations to simulate physiological conditions.

[2] = system: Acinetobacter baumannii clinical isolates (20)
Procedure: as §1, §2

[3] = system: Enterobacter cloacae clinical isolates (23)
Procedure: as §1, §2

Question: `C[C@@H](O)[C@H]1C(=O)N2C(C(=O)O)=C(S[C@@H]3CN[C@H](C(=O)N(C)C)C3)[C@H](C)[C@H]12` [MEM, meropenem] was tested. Which MIC ([1]; Klebsiella pneumoniae, Table S1, RKI 600/16, read-out: MIC) did it give?
Answer: Its MIC is at most 0.5 µg/mL.

Question: What about the MIC ([1]; Table S1, RKI 19/16) of the same compound?
Answer: The MIC was at most 0.5 µg/mL.

Question: And the MIC ([1]; Table S1, RKI 80/15)?
Answer: The MIC was at most 0.5 µg/mL.

Question: What about the MIC ([1]; Table S1, RKI 94/15) of the same compound?
Answer: The MIC was at most 0.5 µg/mL.

Question: What about the MIC ([1]; Table S1, RKI 95/16) of the same compound?
Answer: Its MIC is at most 0.5 µg/mL.

Question: And the MIC ([1]; Table S1, RKI 107/15)?
Answer: Its MIC is 1 µg/mL (≈ 2.61 µM).

Question: And the MIC ([1]; Table S1, RKI 138/16)?
Answer: The MIC was at most 0.5 µg/mL.

Question: What about the MIC ([1]; Table S1, RKI 164/16) of the same compound?
Answer: The MIC was over 64 µg/mL.

Question: And the MIC ([1]; Table S1, RKI 229/15)?
Answer: Its MIC is 16 µg/mL (≈ 41.7 µM).

Question: What about the MIC ([1]; Table S1, RKI 320/16) of the same compound?
Answer: The MIC was at most 0.5 µg/mL.

Question: What about the MIC ([1]; Table S1, RKI 328/16) of the same compound?
Answer: The MIC was 64 µg/mL (≈ 167 µM).

Question: And the MIC ([1]; Table S1, RKI 373/16-1)?
Answer: Its MIC is at most 0.5 µg/mL.

Question: And the MIC ([1]; Table S1, RKI 393/16)?
Answer: Its MIC is at most 0.5 µg/mL.

Question: What about the MIC ([1]; Table S1, RKI 461/16) of the same compound?
Answer: Its MIC is at most 0.5 µg/mL.

Question: What about the MIC ([1]; Table S1, RKI 503/15) of the same compound?
Answer: The MIC was 32 µg/mL (≈ 83.4 µM).

Question: And the MIC ([1]; Table S1, RKI 544/13)?
Answer: The MIC was over 64 µg/mL.

Question: And the MIC ([1]; Table S1, RKI 577/15)?
Answer: Its MIC is at most 0.5 µg/mL.

Question: What about the MIC ([1]; Table S1, RKI 908/15) of the same compound?
Answer: The MIC was 32 µg/mL (≈ 83.4 µM).

Question: And the MIC ([2]; Table S1, RKI 3/15)?
Answer: The MIC was 32 µg/mL (≈ 83.4 µM).

Question: And the MIC ([2]; Table S1, RKI 4/15)?
Answer: The MIC was 32 µg/mL (≈ 83.4 µM).

Question: And the MIC ([2]; Table S1, RKI 11/16)?
Answer: Its MIC is over 64 µg/mL.

Question: And the MIC ([2]; Table S1, RKI 12/16)?
Answer: Its MIC is 64 µg/mL (≈ 167 µM).

Question: And the MIC ([2]; Table S1, RKI 13/16)?
Answer: Its MIC is over 64 µg/mL.

Question: And the MIC ([2]; Table S1, RKI 14/16)?
Answer: Its MIC is over 64 µg/mL.

Question: And the MIC ([2]; Table S1, RKI 16/15)?
Answer: Its MIC is over 64 µg/mL.

Question: And the MIC ([2]; Table S1, RKI 16/16)?
Answer: The MIC was over 64 µg/mL.

Question: And the MIC ([2]; Table S1, RKI 30/16)?
Answer: Its MIC is over 64 µg/mL.

Question: What about the MIC ([2]; Table S1, RKI 32/16) of the same compound?
Answer: Its MIC is 64 µg/mL (≈ 167 µM).

Question: And the MIC ([2]; Table S1, RKI 70/16)?
Answer: Its MIC is over 64 µg/mL.

Question: And the MIC ([2]; Table S1, RKI 230/15)?
Answer: Its MIC is over 64 µg/mL.

Question: What about the MIC ([2]; Table S1, RKI 231/15) of the same compound?
Answer: Its MIC is 64 µg/mL (≈ 167 µM).

Question: What about the MIC ([2]; Table S1, RKI 271/16) of the same compound?
Answer: The MIC was over 64 µg/mL.

Question: And the MIC ([2]; Table S1, RKI 272/16)?
Answer: Its MIC is over 64 µg/mL.

Question: And the MIC ([2]; Table S1, RKI 377/15)?
Answer: Its MIC is 8 µg/mL (≈ 20.9 µM).

Question: What about the MIC ([2]; Table S1, RKI 523/16) of the same compound?
Answer: Its MIC is 32 µg/mL (≈ 83.4 µM).

Question: What about the MIC ([2]; Table S1, RKI 584/16) of the same compound?
Answer: Its MIC is at most 0.5 µg/mL.

Question: What about the MIC ([2]; Table S1, RKI 596/16) of the same compound?
Answer: The MIC was over 64 µg/mL.

Question: And the MIC ([3]; Table S1, RKI 5/14)?
Answer: The MIC was 4 µg/mL (≈ 10.4 µM).

Question: What about the MIC ([3]; Table S1, RKI 33/16) of the same compound?
Answer: Its MIC is 8 µg/mL (≈ 20.9 µM).

Question: And the MIC ([3]; Table S1, RKI 34/16)?
Answer: Its MIC is 32 µg/mL (≈ 83.4 µM).

Question: And the MIC ([3]; Table S1, RKI 37/14)?
Answer: Its MIC is at most 0.5 µg/mL.

Question: What about the MIC ([3]; Table S1, RKI 76/15) of the same compound?
Answer: Its MIC is at most 0.5 µg/mL.

Question: And the MIC ([3]; Table S1, RKI 113/16)?
Answer: Its MIC is 2 µg/mL (≈ 5.22 µM).

Question: And the MIC ([3]; Table S1, RKI 136/15)?
Answer: Its MIC is over 64 µg/mL.

Question: What about the MIC ([3]; Table S1, RKI 141/15) of the same compound?
Answer: Its MIC is 2 µg/mL (≈ 5.22 µM).

Question: And the MIC ([3]; Table S1, RKI 210/15)?
Answer: The MIC was at most 0.5 µg/mL.

Question: What about the MIC ([3]; Table S1, RKI 215/15) of the same compound?
Answer: Its MIC is at most 0.5 µg/mL.

Question: What about the MIC ([3]; Table S1, RKI 243/15) of the same compound?
Answer: Its MIC is at most 0.5 µg/mL.

Question: What about the MIC ([3]; Table S1, RKI 287/13) of the same compound?
Answer: Its MIC is 64 µg/mL (≈ 167 µM).

Question: And the MIC ([3]; Table S1, RKI 308/13)?
Answer: Its MIC is 8 µg/mL (≈ 20.9 µM).

Question: What about the MIC ([3]; Table S1, RKI 348/15) of the same compound?
Answer: Its MIC is 1 µg/mL (≈ 2.61 µM).

Question: And the MIC ([3]; Table S1, RKI 361/13)?
Answer: The MIC was at most 0.5 µg/mL.

Question: What about the MIC ([3]; Table S1, RKI 460/16) of the same compound?
Answer: The MIC was 64 µg/mL (≈ 167 µM).

Question: And the MIC ([3]; Table S1, RKI 466/13)?
Answer: The MIC was 16 µg/mL (≈ 41.7 µM).

Question: What about the MIC ([3]; Table S1, RKI 506/15) of the same compound?
Answer: Its MIC is 16 µg/mL (≈ 41.7 µM).

Question: And the MIC ([3]; Table S1, RKI 546/13)?
Answer: Its MIC is at most 0.5 µg/mL.

Question: What about the MIC ([3]; Table S1, RKI 571/13) of the same compound?
Answer: Its MIC is at most 0.5 µg/mL.

Question: What about the MIC ([3]; Table S1, RKI 733/14) of the same compound?
Answer: The MIC was 64 µg/mL (≈ 167 µM).

Question: What about the MIC ([3]; Table S1, RKI 766/15) of the same compound?
Answer: Its MIC is at most 0.5 µg/mL.
